Assay results published in US9504702B2, “Methods of inhibition of protein fucosylation in vivo using fucose analogs” (Seattle Genetics, Inc., priority 2010, dated 2016).
Entries after “also recorded” stand apart in the source; their conditions may differ.

How the values were obtained:
[1] = system: LP-1 cells (1,6-fucosylation on the antibody); assay: Fucosylation status of LP-1-generated IgG by reducing PLRP-MS; assay type: cell-based, human; conditions: 100 μM, 5 days, in words
Source text: To further define the results of the AOL dot blot, samples of the IgGs produced by cells treated with the following fucose analogs (that gave moderate to strong decreases in the dot blot AOL signal) were isolated and examined by reducing PLRP-MS to verify the fucosylation status using the MW of the heavy chain: alkynyl fucose peracetate; 5-vinylfucose tetraaceate; 5-methylketofucose tetraacetate; 6-bromofucose tetraacetate; 6-fluorofucose tetraacetate; 5-ethylfucose tetraacetate; 5-epoxyfucose tetraacetate; 6′6-difluorofucose tetraacetate; 6-keto-6-ethyl fucose tetraacetate; and 2-fluorofucose peracetate.
40 mL samples of LP-1 cells (250,000 cells/mL) were treated with 100 μM of a fucose analog for 5 days as described above, and the IgGs were purified as described using protein A resin. The yields were estimated by UV spectroscopy assuming an extinction coefficient of 1.4 AU/(mg/mL). Seven of the ten compounds yielded enough IgG to perform the analysis (use of SGD-2067, SGD-1964, and SGD-2020 yielded <10 μg of IgG, likely due to toxicity of the analogs to the cells). The remaining IgGs were reduced with 10 mM DTT at 37° C. for 15 min and were separated on PLRP followed by MS analysis using a QTOF mass spectrometer. The resulting heavy chain peaks were examined and compared to the IgG generated by untreated cells.
The mass spectrometry signals were evaluated by comparing the peak height of the heavy chain versus heavy chain minus fucose and heavy chain minus fucose plus the mass of the fucose analog (which would arise if there was incorporation of the analog into the antibody carbohydrate).

[2] = system: antibody core fucosylation (antibodies that did not bind to KLH, recovered from protein A column); assay: In vivo antibody fucosylation after ip dosing (Example 1, Study 1), AOL lectin dot blot; conditions: 150 mg/kg ip daily for 7 days; for fucosylation levels of the antibodies reduced, as compared to the untreated controls: non-KLH antibodies from protein A column, dot blot, on average
Method: Female BALB/c mice were immunized with Keyhole Limpet Hemocyanin (KLH) 30-60 days prior to starting this study. For the first study, mice were dosed ip with 150 mg/kg of alkynyl fucose (SGD-1887), alkynyl fucose peracetate (SGD-1890), 2-fluorofucose (SGD-2083), or 2-fluorofucose triacetate (SGD-2084) daily for 7 days or were untreated. On day 2, mice were also boosted with KLH. On the day after the last ip dose, mice were terminally bled and serum obtained. For the second study, mice were given 100 mM of 2-fluorofucose (SGD-2083) in their drinking water or given untreated water for 7 days, boosted with KLH, and continued with 100 mM 2-fluorofucose containing drinking water or untreated water for 7 more days before being terminally bled. Serum was then obtained. No mice died in either study. For both studies, serum was passed over a commercial anti-KLH affinity column to obtain KLH-specific polyclonal antibodies. The flow through from the anti-KLH affinity column was passed over a commercial protein A column to obtain the remaining antibodies.
Dot blots: 0.5 μg each of antibodies from untreated and treated animals, as well as standards of antibody cAC10 having known amounts of core fucosylation (0 to 100% fucose), were blotted onto a nitrocellulose membrane. The proteins levels were visualized by Ponceau staining. The blot was probed with biotinylated Aspergillus oryzae L-fucose-specific lectin (AOL) (which binds to fucosylated antibodies) and developed with streptavidin HRP and ECL. Gel loading (visible) and fucose signals (bioluminescence) were measured with an Alpha Innotech camera and quantitated with the machine software.

[3] = system: P-selectin ligand on Ramos cells; assay: Cell surface P-selectin ligand by FACS, P-selectin fusion protein, Ramos; assay type: cell-based, human
Method: 100 μM of each inhibitor was used under standard culture conditions for approximately 1-2 weeks with regular changes of culture medium including fresh inhibitor. After the incubation period, the cells were analyzed by FACS using four different detection reagents: biotinylated-Lens culimaris agglutinin-A (LCA), anti-Lewis' antibody (anti-SSEA1), an anti-Lewis^y antibody (cBR96), and a Recombinant Human P-Selectin/CD62P/Fc Fusion protein. The procedure involved washing of the cells with FACS buffer (PBS+10% bovine serum albumin+0.02% sodium azide) 3 times followed by incubation with the primary detection reagent for 1 hr at 4° C., followed by 3 washes with FACS buffer and then incubation with the secondary detection reagent for 1 hr at 4° C. The cells were finally washed with FACS buffer 3 times and resuspended in FACS buffer and examined using a BD FACScan instrument. […] The P-selectin fusion protein detects P-selectin ligand present on the surface of cells, an interaction which involves the sialyl Lewis' epitope present of the P-selectin ligand.

[4] = system: HL-60 acute mylogenous leukemia; assay: Xenograft of pre-treated HL-60 cells (Example 7, Study 2); assay type: in vivo, female SCID mice; conditions: 20 mM in drinking water
Method: To further evaluate the activity of these fucose analogs, further studies were performed in vivo using tumor cells that had been pre-treated by culturing in the presence of a fucose analog, or using untreated tumor cells. Tumor cells were implanted into 10 mice per group as follows. For the LS174T, PC-3, and Caki-1 cell lines, 5×10^5 cells in 25% Matrigel were implanted subcutaneously into female nude mice. For HL-60 and Ramos cell lines, 5×10^6 cells were implanted subcutaneously into female SCID mice. For mice implanted with untreated tumor cells, mice were provided regular drinking water. For mice implanted with tumor cells pre-treated with 2-fluorofucose (SGD-2083), the mice were provided drinking water supplemented with 20 mM 2-fluorofucose (SGD-2083). For mice implanted with tumor cells pre-treated with alkylnyl fucose (SGD-1887), the mice were provided with regular drinking water.
After 3 weeks of receiving 2-fluorofucose-containing drinking water, mice were returned to regular drinking water, except for mice with Caki-1 tumors. The latter mice were returned to regular drinking water for one week. After the week of receiving regular water, mice were randomized to two groups of 5 each to receive drinking water supplemented with 20 mM 2-fluorofucose or regular drinking water. Mice were sacrificed when tumors reached about 1000 mm^3.

With C#CC(OC(C)=O)[C@@H](OC(C)=O)[C@@H](OC(C)=O)[C@@H](C=O)OC(C)=O (stereo partly drawn) [SGD-1890, 5-ethynylarabinose tetraacetate] as the molecule, how does the “PLRP/MS (inhibition or incorporation)” value [1] read?
Its value is “complete inhibition; also recorded: Full inhibitor”.

And the mortality [2]?
The mortality was “No mice died”.

What about the “fucosylation levels of the antibodies reduced, as compared to the untreated controls” value [2] of the same molecule?
Its value is “about one third”.

Which “signal for P-selectin ligand (increase upon treatment)” value [3] does the source give for C[C@H](O)[C@@H](O)[C@@H](O)[C@H](F)C=O [SGD-2083, 2-fluoro-2-deoxy fucose] here?
Its value is “not observed”.

What about the tumor growth [4] of the same molecule?
The tumor growth was “No change in tumor growth”.

And the “fucosylation levels of the antibodies reduced, as compared to the untreated controls” value [2]?
The value was “about one third”.
